Where two headings read alike, the source gives them in different places.
Experiments:
[1] = test system: RL Human Follicular Lymphoma Cell Line; assay: Alamar blue cytotoxicity assay in RL cells; assay type: cell-based; details: Homo sapiens, 72 h incubation, read-out: Bcl RL Alamar Blue IC50
How it was run: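 Compounds tested at 29 uM to 0.013 uM final (0.3% DMSO) on 30,000 RL cells per well. After 72 h at 37 C, 5% CO2, viability read with Alamar blue.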

[2] = test system: Human Pancreatic Cancer Cell Line Panc1; assay: Cell death assay (propidium iodide/Hoechst) in Panc1 cells with or without camptothecin; assay type: cell-based; details: 72 hours, % cell death by propidium iodide/Hoechst
How it was run: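 Panc1 cells, 10,000/well, exposed 72 h at 37 C to compound (29 uM to 0.13 uM, 0.3% DMSO) with or without 3 uM camptothecin. Propidium iodide and Hoechst staining imaged by fluorescence microscopy; % cell death = PI-stained/Hoechst-stained cells × 100.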

Bcl-xL = Bcl-xL (Homo sapiens, UniProt Q07817); assay: Bcl-xL binding affinity analysis (fluorescence polarization binding assay); design: scale not given here
Sequence of Bcl-xL (Q07817 whole entry): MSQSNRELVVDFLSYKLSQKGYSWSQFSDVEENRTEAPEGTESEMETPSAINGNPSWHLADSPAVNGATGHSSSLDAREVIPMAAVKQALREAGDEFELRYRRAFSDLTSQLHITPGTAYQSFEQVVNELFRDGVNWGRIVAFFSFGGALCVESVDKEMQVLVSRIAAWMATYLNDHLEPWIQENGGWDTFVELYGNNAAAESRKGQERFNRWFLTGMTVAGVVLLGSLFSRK
How it was run: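 In vitro fluorescence polarization binding assay measuring compound binding to human Bcl-xL.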

Bcl-2 = Bcl-2 (Homo sapiens, UniProt P10415); assay: Bcl-2 binding affinity analysis (fluorescence polarization binding assay)
Sequence of Bcl-2 (P10415 whole entry): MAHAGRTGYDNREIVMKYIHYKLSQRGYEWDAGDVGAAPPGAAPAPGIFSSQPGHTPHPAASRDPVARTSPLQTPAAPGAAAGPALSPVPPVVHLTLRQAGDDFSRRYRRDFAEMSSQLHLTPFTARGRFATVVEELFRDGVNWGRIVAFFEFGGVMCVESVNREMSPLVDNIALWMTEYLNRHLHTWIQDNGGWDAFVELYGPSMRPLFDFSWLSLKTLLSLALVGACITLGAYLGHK
How it was run: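 Binding to human Bcl-2 quantified in vitro by a fluorescence polarization assay.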

[3] = Homo sapiens, PANC-1, without camptothecin, read-out: Panc1 − Cpt IC50
[4] = with 3 uM Camptothecin, read-out: Panc1 + Cpt IC50

Structure (SMILES) | IC50 [1] | IC50 [2, 3] | IC50 [2, 4] | Bcl-XL binding affinity Ki (Bcl-xL) | Ki (Bcl-2)
CC(O)C1C(CO)ON(Cc2cccc(CN(CCN(C)C)Cc3ccc([N+](=O)[O-])cc3)c2)C1C(=O)NC1CC2CC(C1C)C2(C)C (centres unmarked) [Compound 396] | > 5000 nM | > 2500 nM | > 2500 nM | ♯ | < 800 nM
CC(C)CC(CN(C)C)N(Cc1cccc(CN2OC(CO)C(C(C)O)C2C(=O)NC2CC3CC(C2C)C3(C)C)c1)Cc1ccccc1[N+](=O)[O-] (centres unmarked) [Compound 316] | > 5000 nM | > 2500 nM | > 2500 nM | ♯ | < 800 nM
CC(O)C1C(CO)ON(Cc2cccc(CN(CCN(C)C)Cc3ccoc3)c2)C1C(=O)NC1CC2CC(C1C)C2(C)C (centres unmarked) [Compound 392] | > 5000 nM | > 2500 nM | > 2500 nM | ♯ | < 800 nM
CC(O)C1C(CO)ON(Cc2cccc(CN(CC(=O)N(C)C)Cc3ccccc3)c2)C1C(=O)NC1CC2CC(C1C)C2(C)C (centres unmarked) [Compound 471] | > 5000 nM | > 2500 nM | > 2500 nM | ♯ | < 800 nM
CC(O)C1C(CO)ON(Cc2cccc(CN(CCN(C)C)CC3CC3)c2)C1C(=O)NC1CC2CC(C1C)C2(C)C (centres unmarked) [Compound 390] | > 5000 nM | > 2500 nM | > 2500 nM | ♯ | < 800 nM
C[C@@H]1[C@@H](NC(=O)[C@@H]2C([C@H](C)O)[C@H](CO)ON2Cc2cccc(CN(CCN(C)C)Cc3ccc(Br)cc3)c2)C[C@H]2C[C@@H]1C2(C)C (some centres unmarked) [Compound 360] | > 5000 nM | > 2500 nM | > 2500 nM | ♯ | < 800 nM
CC(O)C1C(CO)ON(Cc2cccc(CN(CCN(C)C)Cc3nccs3)c2)C1C(=O)NC1CC2CC(C1C)C2(C)C (centres unmarked) [Compound 395] | > 5000 nM | > 2500 nM | > 2500 nM | ♯ | < 800 nM
C[C@@H]1[C@@H](NC(=O)[C@@H]2C([C@H](C)O)[C@H](CO)ON2Cc2cccc(CN(CCN(C)C)Cc3ccccc3Cl)c2)C[C@H]2C[C@@H]1C2(C)C (some centres unmarked) [Compound 346] | 2000 to 5000 nM | > 2500 nM | > 2500 nM | ♯ | < 800 nM
COc1c(CN2O[C@@H](CO)[C@@H]([C@H](C)O)[C@H]2C(=O)N[C@H]2C[C@H]3C[C@@H]([C@@H]2C)C3(C)C)cccc1-c1cccc(C(=O)N[C@H](Cc2ccccc2)CN(C)C)c1 [Compound 486] | 2000 to 5000 nM | > 2500 nM | > 2500 nM | ♯ | < 800 nM
CC(O)C1C(CO)ON(Cc2cccc(CN(CCN(C)C)Cc3ccc4ccccc4c3)c2)C1C(=O)NC1CC2CC(C1C)C2(C)C (centres unmarked) [Compound 375] | > 5000 nM | > 2500 nM | > 2500 nM | ♯ | < 800 nM
CC(O)C1C(CO)ON(Cc2cccc(CN(CCN(C)C)Cc3ccccn3)c2)C1C(=O)NC1CC2CC(C1C)C2(C)C (centres unmarked) [Compound 413] | > 5000 nM | > 2500 nM | > 2500 nM | ♯ | < 800 nM
CC(O)C1C(CO)ON(Cc2cccc(CN(Cc3ccccc3)C(CN(C)C)c3ccccc3)c2)C1C(=O)NC1CC2CC(C1C)C2(C)C (centres unmarked) [Compound 418] | 2000 to 5000 nM | 1800 to 2500 nM | 1800 to 2500 nM | ♯ | < 800 nM
CC(C)CC(CN(C)C)N(Cc1cccc(CN2OC(CO)C(C(C)O)C2C(=O)NC2CC3CC(C2C)C3(C)C)c1)Cc1ccccc1F (centres unmarked) [Compound 312] | < 2000 nM | > 2500 nM | > 2500 nM | ♯ | < 800 nM
CC(O)C1C(CO)ON(Cc2cccc(CN(Cc3ccccc3)C(C)CN(C)C)c2)C1C(=O)NC1CC2CC(C1C)C2(C)C (centres unmarked) [Compound 431] | > 5000 nM | > 2500 nM | > 2500 nM | ♯ | < 800 nM
CC(O)C1C(CO)ON(Cc2cccc(CN(CCN(C)C)Cc3cccc(Br)c3)c2)C1C(=O)NC1CC2CC(C1C)C2(C)C (centres unmarked) [Compound 366] | 2000 to 5000 nM | 1800 to 2500 nM | 1800 to 2500 nM | ♯ | < 800 nM
CC(C)CC(CN(C)C)N(Cc1cccc(CN2OC(CO)C(C(C)O)C2C(=O)NC2CC3CC(C2C)C3(C)C)c1)Cc1ccccc1C(F)(F)F (centres unmarked) [Compound 321] | < 2000 nM | < 1300 nM | < 1300 nM | ♯ | < 800 nM
